Measured values published in patent US9783490B2, “Antimicrobial compounds, their synthesis and applications thereof” (The Secretary of State for Health, priority 2012, dated 2017).

Legend:
S. aureus (MTCC 737) = assay: Minimum Inhibitory Concentration, micro-dilution broth; assay type: cell-based, Staphylococcus aureus; details: for Minimum Inhibitory Concentration S. aureus: Drug sensitive bacteria
Protocol: (§1) Microorganisms and Culture Conditions: Bacterial strains, S. aureus (MTCC 737) and E. coli (MTCC 443) are purchased from MTCC (Chandigarh, India). MRSA (ATCC 33591), Pseudomonas aeruginosa (ATCC 4676), […]-lactamase producing and drug-resistant Klebsiella pneumonia (ATCC700603), Enterococcus faecium (ATCC 19634) and vancomycin resistant Enterococcus faecium (ATCC 51559) are obtained from ATCC (Rockville, Md., USA).
(§2) E. coli is cultured in Luria Bertani broth (10 g of tryptone, 5 g of yeast extract, and 10 g of NaCl in 1000 mL of sterile distilled water (pH −7) while S. aureus, Pseudomonas aeruginosa (ATCC 4676) and MRSA are grown in Yeast-dextrose broth (1 g of beef extract, 2 g of yeast extract, 5 g of peptone and 5 g of NaCl in 1000 mL of sterile distilled water). For all Enterococcus faecium, Brain Heart Infusion broth (BHI) is used. For solid media 5% agar was used along with above mentioned composition. K. pneumonia was grown in nutrient media (3 g of beef extract and 5 g of peptone in 1000 mL of sterile distilled water). The bacterial samples were freeze dried and stored at −80° C. 5 μl of these stocks were added to 3 mL of the nutrient broth and the culture was grown for 6 h at 37° C. prior to the experiments.
(§3) Antibacterial activity is reported as Minimum Inhibitory Concentration (MIC), i.e. the lowest concentration of the antimicrobial agent that will inhibit the growth of a microorganism after overnight incubation. Water-soluble ACK, NCK and BCK series of compounds are assayed in a modified micro-dilution broth format. Stock solutions are made by serially diluting the compounds using autoclaved Millipore water. Bacteria, to be tested are grown for about 6 hrs in the suitable media containing ˜10^9 cfu/mL (determined through dilution plate technique by spread plate method), which is then diluted to 10^5 cfu/mL using nutrient media. 50 μL of serially diluted compound is added to a 96 well plate containing 150 μL bacterial solutions. Two controls are made; one containing 150 μL of media and 50 μL of compound and the other containing 200 μL of bacterial solution. […] MIC value is determined by taking the average of triplicate O.D. values for each concentration and plotting it against concentration using Origin Pro 8.0 software. The data is then subjected to sigmoidal fitting. From the curve, MIC value is determined, as the point in the curve where the O.D. is similar to that of control having no bacteria. The MIC values and errors of independent experiments are reported as average and standard deviation of triplicates.

[1] = system: Enterococcus faecium (ATCC 19634); assay: as above; assay type: cell-based; details: for Minimum Inhibitory Concentration E. faecium: Drug sensitive bacteria
Protocol: as §1, §2, §3

[2] = system: Pseudomonas aeruginosa (ATCC 4676); assay: as above; assay type: cell-based; details: for Minimum Inhibitory Concentration P. aeruginosa: Drug sensitive bacteria
Protocol: as §1, §2, §3

[3] = system: drug-resistant Klebsiella pneumonia (ATCC700603); assay: as above; assay type: cell-based; details: for Minimum Inhibitory Concentration K. pneumonia: Drug resistant bacteria
Protocol: as §1, §2, §3

[4] = system: vancomycin resistant Enterococcus faecium (ATCC 51559); assay: as above; assay type: cell-based; details: for Minimum Inhibitory Concentration VRE: Drug resistant bacteria
Protocol: as §1, §2, §3

E. coli (MTCC 443) = assay: as above; assay type: cell-based, Escherichia coli; details: for Minimum Inhibitory Concentration E. coli: Drug sensitive bacteria
Protocol: as §1, §2, §3

MRSA (ATCC 33591) = assay: as above; assay type: cell-based, Methicillin resistant S. aureus; details: for Minimum Inhibitory Concentration MRSA: Drug resistant bacteria
Protocol: as §1, §2, §3

human RBCs = assay: Haemolytic activity (HC50); assay type: cell-based; details: concentration at which 50% of the blood cells are lysed; human RBCs
Protocol: Erythrocytes are isolated from freshly drawn, heparinized human blood and re-suspended to 5 vol % in PBS (pH 7.4). In a 96-well microtiter plate, 150 μl of erythrocyte suspension is added to 50 μl of serially diluted compound. Two controls are made, one without compound and other with 50 μl of 1 vol % solution of Triton X-100. The plate is incubated for about 1 hr at a temperature of about 37° C. The plate is then centrifuged at 3,500 rpm for about 5 min, 100 μl of the supernatant from each well is transferred to a fresh microtiter plate, and absorbance at 540 nm is measured. Percentage of hemolysis is determined as (A−A0)/(Atotal−A0)×100, where A is the absorbance of the test well, A0 the absorbance of the negative controls (without compound), and A total the absorbance of 100% hemolysis wells (with Triton X-100), when absorbance is read at 540 nm.
Toxicity studies of the compounds are carried out on freshly drawn human RBCs. Toxicity of the antimicrobial compounds of the present disclosure is defined by their HC50 values illustrated in Table 3, i.e. the concentration of compound at which 50% of the blood cells are lysed. Haemolytic studies conducted herein illustrates that the antimicrobial compounds provided by the instant disclosure are selective towards drug sensitive bacteria and drug resistant bacteria over human RBCs, thus establishing the non-toxicity of the present compounds.

Structure (SMILES)	MIC value against S. aureus (S. aureus (MTCC 737))	Minimum Inhibitory Concentration S. aureus (S. aureus (MTCC 737)) [µg/mL]	MIC value against E. faecium [1]	Minimum Inhibitory Concentration E. faecium [1] [µg/mL]	MIC value against P. aeruginosa [2]	Minimum Inhibitory Concentration P. aeruginosa [2] [µg/mL]	MIC value against K. pneumonia [3]	Minimum Inhibitory Concentration K. pneumonia [3] [µg/mL]	MIC value against vancomycin-resistant E. faecium [4]	Minimum Inhibitory Concentration VRE [4] [µg/mL]	MIC value against E. coli (E. coli (MTCC 443))	Minimum Inhibitory Concentration E. coli (E. coli (MTCC 443)) [µg/mL]	MIC value against methicillin-resistant S. aureus (MRSA (ATCC 33591))	Minimum Inhibitory Concentration MRSA (MRSA (ATCC 33591)) [µg/mL]	HC50 (human RBCs) [µg/mL]
CCCCN(Cc1c2ccccc2c(Cl)c2ccccc12)C(=O)C(N)CCCCN.O=C(O)C(F)(F)F (centres unmarked) [ACK-4, Lys-N-butyl-10-Aminomethyl-9-chloroanthracene trifluoroacetate]	about 5.3 μg/ml	5.3	about 4.5 μg/ml	4.5	~1.9 µg/mL	1.9	about 17 μg/ml	17	about 5.3 μg/ml	5.3	about 4.8 μg/ml	4.8	about 6.3 μg/ml	6.3	91
CCCCN(Cc1cccc2ccccc12)C(=O)C(N)CCCCN.O=C(O)C(F)(F)F (centres unmarked) [NCK-4, Lys-N-butyl-1-Aminomethylnaphthalene trifluoroacetate]		>100		>100		>100		>100		>100		>100		>100	>1000
CCCCCCCCCCN(Cc1ccccc1)C(=O)[C@@H](N)CCCCN.O=C(O)C(F)(F)F [BCK-10, Lys-N-decyl-1-Aminomethylbenzene trifluoroacetates]	about 5.7 μg/ml	5.7	about 6.5 μg/ml	6.5	about 4 μg/ml	4	about 31 μg/ml	31	about 5.8 μg/ml	5.8	about 6.5 μg/ml	6.5	about 15.7 μg/ml	15.7	95
CCN(Cc1c2ccccc2c(Cl)c2ccccc12)C(=O)C(N)CCCCN.O=C(O)C(F)(F)F (centres unmarked) [ACK-2, Lys-N-ethyl-10-Aminomethyl-9-chloroanthracene trifluoroacetate]		11		13.6	about 4 μg/ml	4		31		7.2		25		21	118
CCCCCCCCCCCCN(Cc1ccccc1)C(=O)C(N)CCCCN.O=C(O)C(F)(F)F (centres unmarked) [BCK-12, Lys-N-dodecyl-1-Aminomethylbenzene trifluoroacetates]	~2.7 µg/mL	2.7	~2.6 µg/mL	2.6	about 4 μg/ml	4	~2.8 µg/mL	2.8	~3.3 µg/mL	3.3	~5 µg/mL	5	~2.9 µg/mL	2.9	45
CCCCCCCCN(Cc1cccc2ccccc12)C(=O)C(N)CCCCN.O=C(O)C(F)(F)F (centres unmarked) [NCK-8, Lys-N-octyl-1-Aminomethylnaphthalene trifluoroacetate]	about 6.3 μg/ml	6.3	about 5.5 μg/ml	5.5	~5.4 µg/mL	5.4	about 13 μg/ml	13	about 7 μg/ml	7	about 5 μg/ml	5	about 4.4 μg/ml	4.4	60
CCCCCCN(Cc1cccc2ccccc12)C(=O)[C@@H](N)CCCCN.O=C(O)C(F)(F)F [NCK-6, Lys-N-hexyl-1-Aminomethylnaphthalene trifluoroacetate]		20		34	about 11 μg/ml	11		100		54		25		65	508
